Here are results for 44 compounds from US9981909B2 (Janssen Pharmaceutica NV, priority 2008, dated 2018).

Structures can show the parent of a compound that is named as a salt.

The target in this experiment is rat 5-HT7 receptor (Rattus norvegicus (Rat), UniProt P32305). In words: r5-HT7 binding assay, competitive radioligand binding with [3H]5-CT. The method, then: Receptor binding was performed using membrane fractions prepared from the HEK-293 cell line recombinantly expressing rat 5-HT7 receptors (NCBI accession NM_022938). Compound affinity for the rat 5-HT7 receptor subtype was evaluated by competitive radioligand binding assays using 5-carboxamido[^3H]tryptamine ([^3H]5-CT) (Amersham Biosciences, cat. 90000403) detection. HitHunter™ cAMP assays are in-vitro based competitive immunoassays. The assay was performed on the HEK-293 cell line stably transfected with r5-HT7 receptor. Cells were pre-incubated with test compounds for 10 minutes. For antagonist testing, the cells were then challenged with 100 nM 5-CT for 20 minutes. Cells were then lysed and cAMP measured according to manufacturers protocol (Amersham, cat. NET791250UC) or [^3H]mesulergine (Amersham, cat. TRK1041). The assay was performed on membranes prepared from HEK-293 cells stably transfected with h5-HT6. Following centrifugation, membranes were resuspended and incubated for 60 min at room temperature with 1.7 nM [^3H]LSD in the presence of increasing concentration of test compounds. Nonspecific binding was defined in the presence of 10 μM clozapine (Tocris, cat. TRK1068). Homogenized HEK-293 membranes expressing the human SERT were incubated in 50 mM Tris-HCl (pH 7.5), 120 mM NaCl, 5 mM KCl with [^3H]-citalopram (3 nM) with or without test compounds. Nonspecific binding was determined in the presence of 10 μM fluoxetine. Radioactivity readouts and Ki values were performed as previously described for r5-HT7. […] Compounds were assayed in their free form or as salts, as indicated in the Examples section above.

Where [1] appears, read: rat 5-HT7 receptor, HEK-293 membranes.

Sequence of rat 5-HT7 receptor (P32305 1-435): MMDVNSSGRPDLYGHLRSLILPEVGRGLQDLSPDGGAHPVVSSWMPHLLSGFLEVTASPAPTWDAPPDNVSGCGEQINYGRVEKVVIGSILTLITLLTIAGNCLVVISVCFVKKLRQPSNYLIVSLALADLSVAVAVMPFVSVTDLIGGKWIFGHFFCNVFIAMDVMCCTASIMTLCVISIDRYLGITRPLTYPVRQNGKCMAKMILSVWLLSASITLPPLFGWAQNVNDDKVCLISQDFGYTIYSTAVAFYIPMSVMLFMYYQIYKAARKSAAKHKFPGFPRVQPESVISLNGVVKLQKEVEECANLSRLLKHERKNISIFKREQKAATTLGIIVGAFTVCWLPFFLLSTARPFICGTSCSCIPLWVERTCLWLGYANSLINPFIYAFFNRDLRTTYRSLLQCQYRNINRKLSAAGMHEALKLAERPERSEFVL

What is called Ki is the equilibrium dissociation constant of an inhibitor or competing ligand from its target. A high value points to weaker binding. In the case of `CCCN1CC(Oc2cc(F)ccc2OCc2cccc(Cl)c2)C1` [Example 206, 3-[2-(3-Chloro-benzyloxy)-5-fluoro-phenoxy]-1-propyl-azetidine], under setting [1], the Ki was 21 nM.

Under setting [1], `Clc1cccc(COc2ccc(-c3ccsc3)cc2OC2CNC2)c1` [Example 210, 3-[2-(3-Chloro-benzyloxy)-5-thiophen-3-yl-phenoxy]-azetidine] returned a Ki of 506 nM.

Compound `CN(C)C(=O)c1ccc(OCc2cccc(Cl)c2)c(OC2CNC2)c1` [Example 211, 3-(Azetidin-3-yloxy)-4-(3-chloro-benzyloxy)-N,N-dimethyl-benzamide] displayed a Ki under setting [1] of 9000 nM.

With `CCC1(Oc2cc(Br)ccc2OCc2cccc(Cl)c2)CNC1` [Example 213, 3-[5-Bromo-2-(3-chloro-benzyloxy)-phenoxy]-3-ethyl-azetidine], affinity (rat 5-HT7, HEK-293 membranes) was put at a Ki of 4590 nM.

Regarding `CC1(Oc2cc(Br)ccc2OCc2cccc(C(F)(F)F)c2)CNC1` [Example 217], the affinity (rat 5-HT7, HEK-293 membranes) corresponds to a Ki of 34 nM.

Take `CC1(Oc2cc(Br)ccc2Oc2ccccc2)CNC1` [Example 218, 3-(5-Bromo-2-phenoxy-phenoxy)-3-methyl-azetidine]: for the setting “rat 5-HT7, HEK-293 membranes”, the affinity, expressed as Ki, was 69 nM.

`CC(C)N1CC(Oc2ccc(Cl)cc2OC2CNC2)C1` [Example 224, 3-[5-Chloro-2-(1-Isopropyl-azetidin-3-ol)-phenoxy]-azetidine]: where the note is “rat 5-HT7, HEK-293 membranes”, the Ki amounted to 68 nM.

Where the note is “rat 5-HT7, HEK-293 membranes”, `Clc1ccc(OC2CN(C(c3ccccc3)c3ccccc3)C2)c(OC2CNC2)c1` [Example 225, 3-[5-Chloro-2-(1-benzhydryl-azetidin-3-ol)-phenoxy]-azetidine] returned a Ki of 2670 nM.

In turn, `Clc1ccc(OC2CNC2)c(OC2CNC2)c1` [Example 226] displayed a Ki (rat 5-HT7, HEK-293 membranes) of 840 nM.

The compound `CC(C)N1CC(Oc2ccc(Cl)cc2OC2CN(C(C)C)C2)C1` [Example 227, 3-[5-Chloro-2-(1-Isopropyl-azetidin-3-ol)-phenoxy]-1-isopropyl-azetidine] had a Ki (rat 5-HT7, HEK-293 membranes) of 336 nM.

As to `CN1CC(COc2cc(Br)ccc2OCc2cccc(Cl)c2)C1` [Example 234, 3-[5-Bromo-2-(3-chloro-benzyloxy)-phenoxymethyl]-1-methyl-azetidine], the Ki (rat 5-HT7, HEK-293 membranes) came to 130 nM.

The compound `OC1(COc2cc(Br)ccc2OCc2cccc(Cl)c2)CNC1` [Example 235, 3-[5-Bromo-2-(3-chloro-benzyloxy)-phenoxymethyl]-azetidin-3-ol] returned a Ki (rat 5-HT7, HEK-293 membranes) of 665 nM.

For the compound `CC(Oc1cc(Br)ccc1OCc1cccc(Cl)c1)C1(O)CNC1` (centres unmarked) [Example 236, 3-[1-[5-Bromo-2-(3-chloro-benzyloxy)-phenoxy]-ethyl]-azetidin-3-ol], for the setting “rat 5-HT7, HEK-293 membranes”, the affinity, expressed as Ki, was 831 nM.

Where the note is “rat 5-HT7, HEK-293 membranes”, `Clc1cccc(COc2ccc(Br)cc2COC2CNC2)c1` [Example 237, 3-[5-Bromo-2-(3-chloro-benzyloxy)-benzyloxy]-azetidine] had a Ki of 120 nM.

For `Clc1cccc(COc2ccc(Cl)cc2COC2CNC2)c1` [Example 238, 3-[5-Chloro-2-(3-chloro-benzyloxy)-benzyloxy]-azetidine], the Ki (rat 5-HT7, HEK-293 membranes) turned out to be 200 nM.

Under “rat 5-HT7, HEK-293 membranes”, `Cc1noc(COc2ccc(Cl)cc2OC2CNC2)n1` [Example 239, 5-[2-(Azetidin-3-yloxy)-4-chloro-phenoxymethyl]-3-methyl-[1,2,4]oxadiazole] returned a Ki of 233 nM.

Regarding `Clc1ccc(OCc2nc(C3CCC3)no2)c(OC2CNC2)c1` [Example 240, 5-[2-(Azetidin-3-yloxy)-4-chloro-phenoxymethyl]-3-cyclobutyl-[1,2,4]oxadiazole], the Ki (rat 5-HT7, HEK-293 membranes) was 252 nM.

In turn, `Clc1ccc(OCc2nc(C3CC3)no2)c(OC2CNC2)c1` [Example 241, 5-[2-(Azetidin-3-yloxy)-4-chloro-phenoxymethyl]-3-cyclopropyl-[1,2,4]oxadiazole hydrochloride] registered a Ki (rat 5-HT7, HEK-293 membranes) of 263 nM.

For the compound `CC(C)c1noc(COc2ccc(Cl)cc2OC2CNC2)n1` [Example 242, 5-[2-(Azetidin-3-yloxy)-4-chloro-phenoxymethyl]-3-isopropyl-[1,2,4]oxadiazole hydrochloride], for the setting “rat 5-HT7, HEK-293 membranes”, the Ki was 273 nM.

As to `CCc1noc(COc2ccc(Cl)cc2OC2CNC2)n1` [Example 243, 5-[2-(Azetidin-3-yloxy)-4-chloro-phenoxymethyl]-3-ethyl-[1,2,4]oxadiazole hydrochloride], the Ki (rat 5-HT7, HEK-293 membranes) was determined as 461 nM.

In the case of `COc1cccc(Oc2ccc(Br)cc2OC2CNC2)c1` [Example 248, 3-[5-Bromo-2-(3-methoxy-phenoxy)-phenoxy]-azetidine], affinity (rat 5-HT7, HEK-293 membranes) was put at a Ki of 43 nM.

Turning to `Fc1ccc(Oc2ccc(Br)cc2OC2CNC2)cc1` [Example 249, 3-[5-Bromo-2-(4-fluoro-phenoxy)-phenoxy]-azetidine], the Ki (rat 5-HT7, HEK-293 membranes) turned out to be 20 nM.

Take `Brc1ccc(Oc2ccc(Br)cc2OC2CNC2)cc1` [Example 250, 3-[5-Bromo-2-(4-bromo-phenoxy)-phenoxy]-azetidine]: the Ki (rat 5-HT7, HEK-293 membranes) stood at 17 nM.

Take `Brc1ccc(Oc2ccc3ccccc3c2)c(OC2CNC2)c1` [Example 254, 3-[5-Bromo-2-(naphthalen-2-yloxy)-phenoxy]-azetidine]: the affinity (rat 5-HT7, HEK-293 membranes), expressed as Ki, was 19 nM.

Turning to `Brc1ccc(Oc2cccc3ccccc23)c(OC2CNC2)c1` [Example 255, 3-[5-Bromo-2-(naphthalen-1-yloxy)-phenoxy]-azetidine], for the setting “rat 5-HT7, HEK-293 membranes”, the Ki was determined as 196 nM.

`Clc1ccc(Oc2ccccc2)c(OC2CNC2)c1` [Example 256, 3-(5-Chloro-2-phenoxy-phenoxy)-azetidine] came in with a Ki (rat 5-HT7, HEK-293 membranes) of 160 nM.

Under “rat 5-HT7, HEK-293 membranes”, `Cc1ccccc1Oc1ccc(Cl)cc1OC1CNC1` [Example 259, 3-(5-Chloro-2-o-tolyloxy-phenoxy)-azetidine trifluoroacetate] came in with a Ki of 460 nM.

Where the note is “rat 5-HT7, HEK-293 membranes”, `Clc1ccc(Oc2nc3ccccc3s2)c(OC2CNC2)c1` [Example 261, 2-[2-(Azetidin-3-yloxy)-4-chloro-phenoxy]-benzothiazole] registered a Ki of 1600 nM.

`Clc1ccc(Oc2ccc3cccnc3n2)c(OC2CNC2)c1` [Example 263, 2-[2-(Azetidin-3-yloxy)-4-chloro-phenoxy]-[1,8]naphthyridine] had a Ki (rat 5-HT7, HEK-293 membranes) of 544 nM.

Regarding `Clc1ccc(Oc2ccccc2)c(OC2CCNCC2)c1` [Example 265, 4-(5-Chloro-2-phenoxy-phenoxy)-piperidine], the Ki (rat 5-HT7, HEK-293 membranes) came out at 130 nM.

On to `O=C(c1ccccc1)c1ccc(Br)cc1OC1CNC1` [Example 280], for which, for the setting “rat 5-HT7, HEK-293 membranes”, affinity was put at a Ki of 98 nM.

As to `CN1CC(Oc2cc(Br)ccc2C(=O)c2cccc(Cl)c2)C1` [Example 283, [4-Bromo-2-(1-methyl-azetidin-3-yloxy)-phenyl]-(3-chloro-phenyl)-methanone], for the setting “rat 5-HT7, HEK-293 membranes”, the affinity corresponds to a Ki of 50 nM.

With `Cc1cccc(C(=O)c2ccc(Br)cc2OC2CNC2)c1` [Example 284, [2-(Azetidin-3-yloxy)-4-bromo-phenyl]-m-tolyl-methanone], the Ki (rat 5-HT7, HEK-293 membranes) stood at 19 nM.

In the case of `Cc1ccccc1C(=O)c1ccc(Br)cc1OC1CNC1` [Example 285, [2-(Azetidin-3-yloxy)-4-bromo-phenyl]-o-tolyl-methanone], the affinity (rat 5-HT7, HEK-293 membranes), expressed as Ki, was 3000 nM.

As to `COc1cccc(C(=O)c2ccc(Br)cc2OC2CNC2)c1` [Example 286, [2-(Azetidin-3-yloxy)-4-bromo-phenyl]-(3-methoxy-phenyl)-methanone], the Ki (rat 5-HT7, HEK-293 membranes) is 39 nM.

Regarding `CC(C)N1CC(Oc2cc(Br)ccc2C(=O)c2ccc3ccccc3c2)C1` [Example 288, [4-Bromo-2-(1-isopropyl-azetidin-3-yloxy)-phenyl]-naphthalen-2-yl-methanone], the affinity (rat 5-HT7, HEK-293 membranes) corresponds to a Ki of 59 nM.

As to `CC(C)N1CC(Oc2cc(Br)ccc2C(=O)c2ccc3c(c2)OCO3)C1` [Example 290, Benzo[1,3]dioxol-5-yl-[4-bromo-2-(1-isopropyl-azetidin-3-yloxy)-phenyl]-methanone], for the setting “rat 5-HT7, HEK-293 membranes”, the Ki was 143 nM.

With `COc1ccc(C(=O)c2ccc(Br)cc2OC2CNC2)cc1` [Example 291, [2-(Azetidin-3-yloxy)-4-bromo-phenyl]-(4-methoxy-phenyl)-methanone], for the setting “rat 5-HT7, HEK-293 membranes”, the Ki was 34 nM.

Compound `O=C(c1ccc(Cl)c(F)c1)c1ccc(Br)cc1OC1CNC1` [Example 292, [2-(Azetidin-3-yloxy)-4-bromo-phenyl]-(4-chloro-3-fluoro-phenyl)-methanone] returned a Ki (rat 5-HT7, HEK-293 membranes) of 74 nM.

On to `O=C(c1ccc(Cl)c(Cl)c1)c1ccc(Br)cc1OC1CNC1` [Example 293, [2-(Azetidin-3-yloxy)-4-bromo-phenyl]-(3,4-dichloro-phenyl)-methanone], for which the affinity (rat 5-HT7, HEK-293 membranes) corresponds to a Ki of 51 nM.

Under “rat 5-HT7, HEK-293 membranes”, `O=C(c1ccc2ccccc2c1)c1ccc(Cl)cc1OC1CNC1` [Example 294, [2-(Azetidin-3-yloxy)-4-chloro-phenyl]-naphthalen-2-yl-methanone] showed a Ki of 72 nM.

For the compound `O=C(c1ccc2c(c1)OCO2)c1ccc(Cl)cc1OC1CNC1` [Example 295, [2-(Azetidin-3-yloxy)-4-chloro-phenyl]-benzo[1,3]dioxol-5-yl-methanone], for the setting “rat 5-HT7, HEK-293 membranes”, the inhibition constant (Ki) turned out to be 226 nM.

For the setting “rat 5-HT7, HEK-293 membranes”, `CC(C)N1CC(Oc2cc(Cl)ccc2C(=O)c2ccc3c(c2)OCO3)C1` [Example 296, Benzo[1,3]dioxol-5-yl-[4-chloro-2-(1-isopropyl-azetidin-3-yloxy)-phenyl]-methanone] returned a Ki of 181 nM.

The compound `O=C(c1ccc(Cl)cc1)c1ccc(Cl)cc1OC1CNC1` [Example 297, [2-(Azetidin-3-yloxy)-4-chloro-phenyl]-(4-chloro-phenyl)-methanone] had a Ki (rat 5-HT7, HEK-293 membranes) of 150 nM.
